Assay results from patent publication US12102685B2, “Immodulator peptides covalently modified with small molecules” (priority 2020, dated 2024).
Marks after values point to notes of the source that are not given here. Peptide text beside a SMILES is read from it.

Key:
[1] = molecular target: T1, DNA-binding domain (DBD) of RXR-alpha (Homo sapiens, UniProt P19793); assay: Binding to RXRa-DBD with or without ferric iron (x3B)
T1 construct: purchased Abcam, Cambridge, MA
T1 sequence (P19793 111-228): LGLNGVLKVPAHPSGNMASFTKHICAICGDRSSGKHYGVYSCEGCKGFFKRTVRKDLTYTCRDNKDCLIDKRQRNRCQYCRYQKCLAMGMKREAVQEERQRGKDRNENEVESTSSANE
Protocol: Experiment x3B. Binding of immodulator peptides to DNA-binding domain (DBD) of RXR-alpha, with or without ferric iron. 100 ng/well recombinant RXRa-DBD (Abcam, Cambridge, MA) was adsorbed to wells of a 96-well plate for 60 minutes at RT, then blocked with 200 uL 1% BSA in PBS buffer overnight. Plate was washed and 800 ng/well Streptavidin-Alexa 488 conjugate (SA488)-labelled IM peptide was added, with or without ferric chloride (5 uM) or 5-fold excess RXRa-DBD. The plate was incubated for 2 hours at room temperature, washed and counted in a standard fluorometer (excitation/emission 485/525 nm).

[2] = FITC-PI(4,5)P2 binding at pH5.2 with metals and cold PPI (x9D)
Protocol: To a streptavidin-coated 96-well plate, 400 ng peptide IM3 or IM5 were bound per well. Each well received 100 uL of sodium acetate buffer pH5.2 containing 500 uM EDTA, Calcium Chloride, Zinc Chloride or Ferric Chloride. Each well additionally contained 50 ng FITC-PI(4,5)P2 plus 2 ug of either cold PI(3,4)P2, PI(4,5)P2, PI(3,5)P2 or buffer. All assays were done in sextuplicate. After incubation at room temperature for 60 mins, wells were washed and counted in a fluorometer set at FITC excitation/emmission wavelengths.

[3] = Competition binding assay to metal-charged NTA-coated plates (x2B b); settings: for FITC-IM3 fluorescence with competitor: PBS on calcium = 100
Protocol: NTA-metal-affinity fluorescence assay was performed using 96-well NTA-metal-coated plates readily available from commercial sources such as Qiagen (Germantown, MD). NTA was charged with ferrous or ferric iron, zinc, copper, calcium, vanadium, ruthenium, cobalt, titanium, manganese or other metals. 400 ng of FITC-labeled immodulator peptide (or biotinylated immodulator peptide complexed to Alexa-488-labeled streptavidin) in PBS buffer was added per plate. After incubation at room temperature for 60 minutes, excess peptide was washed off and peptide was detected by measuring fluorescence (excitation 490 nm, emmission 525 nm) in a fluorometer. • (a) Using FITC-labeled IM3 peptide (1 ug/well) in the fluorescent binding assay: • EDTA-treated control: 2,251±1,186 • Ferrous iron: 170,441±11,264 (p<0.001)* • Copper: 13,644±5566 (p<0.05)* • Calcium: 48,822±11,990 (p<0.01)* • *p values are relative to EDTA-treated control • (b) Competition binding assay to ferrous iron, calcium, copper and zinc-charged NTA-coated plates using FITC-labeled IM3 peptide (0.5 uM) and 8× (4 uM) unlabelled competitor peptides IM3N1, IM3N2 (*all comparisons to PBS control are p<0.01); # fluorescent value of binding to […] was set at 100.

full-length huNur77 = molecular target: T2, full-length huNur77 (Homo sapiens, UniProt P22736); assay: Binding to full-length huNur77 (x3C); settings: 333 ng/well labelled peptide
T2 construct: purchased Abcam, Cambridge, MA
Protocol: 400 ng/well recombinant Nur77 (Abcam, Cambridge, MA) was adsorbed to wells of a 96-well plate for 90 minutes at RT, then blocked with 200 uL 1% BSA in PBS buffer overnight. Plate was washed and 333 ng/well Streptavidin-Alexa 488 conjugate (SA488)-labelled IM3, IM4 or no peptide was added. The plate was incubated for 60 min at room temperature, washed and counted in a standard fluorometer (excitation/emission 485/525 nm). Background (buffer alone) was subtracted.

[4] = 100 ng/well RXRa-DBD, no FeCl3, no excess RXRa-DBD

T2 sequence (P22736 whole entry): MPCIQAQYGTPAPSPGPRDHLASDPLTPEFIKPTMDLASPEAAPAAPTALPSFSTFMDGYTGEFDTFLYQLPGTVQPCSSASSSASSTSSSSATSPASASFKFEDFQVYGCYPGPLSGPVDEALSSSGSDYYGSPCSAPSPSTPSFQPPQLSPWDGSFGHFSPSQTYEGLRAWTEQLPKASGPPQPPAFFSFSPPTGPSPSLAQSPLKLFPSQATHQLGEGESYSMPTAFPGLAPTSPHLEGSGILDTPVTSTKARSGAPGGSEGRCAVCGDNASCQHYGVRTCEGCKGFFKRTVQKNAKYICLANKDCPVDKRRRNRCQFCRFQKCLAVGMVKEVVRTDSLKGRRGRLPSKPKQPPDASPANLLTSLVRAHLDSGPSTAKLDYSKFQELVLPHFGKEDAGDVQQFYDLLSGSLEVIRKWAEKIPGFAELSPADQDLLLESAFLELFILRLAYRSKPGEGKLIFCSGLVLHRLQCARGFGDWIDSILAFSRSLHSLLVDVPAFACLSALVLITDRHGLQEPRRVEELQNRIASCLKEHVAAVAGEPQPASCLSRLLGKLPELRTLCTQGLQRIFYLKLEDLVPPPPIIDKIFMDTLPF

| Compound | fluorescence [1, 4] | fluorescence ([1]; FeCl3 5 uM, 5X excess RXRa-DBD) | fluorescence ([1]; FeCl3 5 uM, no excess RXRa-DBD) | fluorescence, FITC-PI(4,5)P2 bound ([2]; Buffer, Calcium) | fluorescence, FITC-PI(4,5)P2 bound ([2]; Buffer, EDTA) | fluorescence, FITC-PI(4,5)P2 bound ([2]; Buffer, Ferric Iron) | fluorescence, FITC-PI(4,5)P2 bound ([2]; Buffer, Zinc) | fluorescence, FITC-PI(4,5)P2 bound ([2]; Cold PI(3,4)P2, Calcium) | fluorescence, FITC-PI(4,5)P2 bound ([2]; Cold PI(3,4)P2, EDTA) | fluorescence, FITC-PI(4,5)P2 bound ([2]; Cold PI(3,4)P2, Ferric Iron) | fluorescence, FITC-PI(4,5)P2 bound ([2]; Cold PI(3,4)P2, Zinc) | fluorescence, FITC-PI(4,5)P2 bound ([2]; Cold PI(3,5)P2, Calcium) | fluorescence, FITC-PI(4,5)P2 bound ([2]; Cold PI(3,5)P2, EDTA) | fluorescence, FITC-PI(4,5)P2 bound ([2]; Cold PI(3,5)P2, Ferric Iron) | fluorescence, FITC-PI(4,5)P2 bound ([2]; Cold PI(3,5)P2, Zinc) | fluorescence, FITC-PI(4,5)P2 bound ([2]; Cold PI(4,5)P2, Calcium) | fluorescence, FITC-PI(4,5)P2 bound ([2]; Cold PI(4,5)P2, EDTA) | fluorescence, FITC-PI(4,5)P2 bound ([2]; Cold PI(4,5)P2, Ferric Iron) | fluorescence, FITC-PI(4,5)P2 bound ([2]; Cold PI(4,5)P2, Zinc) | fluorescence (full-length huNur77; Nur77 400 ng/well) | further results |
| --- | --- | --- | --- | --- | --- | --- | --- | --- | --- | --- | --- | --- | --- | --- | --- | --- | --- | --- | --- | --- | --- |
| CC[C@H](C)[C@H](NC(=O)CNC(=O)[C@H](CCCNC(=N)N)NC(=O)[C@H](CCCCN)NC(=O)[C@H](CCCNC(=N)N)NC(=O)CNC(=O)[C@H](CCCNC(=N)N)NC(=O)[C@H](CO)NC(=O)[C@@H]1CCCN1C(=O)[C@H](CCCCN)NC(=O)[C@H](CS)NC(=O)[C@H](CCC(N)=O)NC(=O)[C@H](CCCCN)NC(=O)[C@H](CCCNC(=N)N)NC(=O)[C@H](CCCCN)NC(=O)[C@H](Cc1ccc(O)cc1)NC(=O)[C@H](Cc1ccccc1)NC(=O)CNC(=O)[C@H](CCCCN)NC(=O)[C@@H](N)CCCNC(=N)N)C(=O)N[C@@H](CS)C(=O)N[C@@H](Cc1c[nH]c2ccccc12)C(=O)O [IM5] (H-RKGFYKRKQCKPSRGRKRGICW-OH; N-terminus and C-terminus assumed) | 228.0 ± 44.9 | 303.0 ± 68.3 | 552.7 ± 86.8^ | 234 ± 34 | 88 ± 23 | 1,111 ± 167 | 236 ± 55 | 205 ± 50 | 150 ± 81 | 2,150 ± 420 | 151 ± 51 | 489 ± 146 | 205 ± 71 | 2,026 ± 176 | 353 ± 29 | 163 ± 80 | 81 ± 95 | 1,447 ± 304 | 104 ± 21 | – | – |
| RGVTEDYLRLETLVQKVVSKGFYKKKQCRPSKGRKRGFCW [IM3N1] | – | – | – | – | – | – | – | – | – | – | – | – | – | – | – | – | – | – | – | – | FITC-IM3 fluorescence with competitor ([3]; Calcium, 0.5 uM FITC-IM3, 8x (4 uM) unlabelled competitor): 14.6 ± 1.4*; FITC-IM3 fluorescence with competitor ([3]; Copper, 8x (4 uM) unlabelled competitor): 9.2 ± 1.5*; FITC-IM3 fluorescence with competitor ([3]; Ferrous iron, 8x (4 uM) unlabelled competitor): 20.4 ± 1.0*; FITC-IM3 fluorescence with competitor ([3]; Zinc, 8x (4 uM) unlabelled competitor): 15.7 ± 1.3* |
| N=C(N)NCCC[C@H](NC(=O)CNC(=O)[C@H](CCCCN)NC(=O)[C@H](CO)NC(=O)[C@@H]1CCCN1C(=O)[C@H](CCCNC(=N)N)NC(=O)[C@H](CS)NC(=O)[C@H](CCC(N)=O)NC(=O)[C@H](CCCCN)NC(=O)[C@H](CCCCN)NC(=O)[C@H](CCCCN)NC(=O)[C@H](Cc1ccc(O)cc1)NC(=O)[C@H](Cc1ccccc1)NC(=O)CNC(=O)[C@H](CCCCN)NC(=O)[C@@H](N)CCCCN)C(=O)N[C@@H](CCCCN)C(=O)N[C@@H](CCCNC(=N)N)C(=O)NCC(=O)N[C@@H](Cc1ccccc1)C(=O)N[C@@H](CS)C(=O)N[C@@H](Cc1c[nH]c2ccccc12)C(=O)O [IM3] (H-KKGFYKKKQCRPSKGRKRGFCW-OH; N-terminus and C-terminus assumed) | 687.3 ± 55.4 | 837.0 ± 30.5 | 1161.3 ± 78.5 | 142 ± 29 | 30 ± 22 | 772 ± 168 | 138 ± 388 | 48 ± 61 | 26 ± 25 | 2,162 ± 269 | 65 ± 16 | 88 ± 22 | 63 ± 26 | 2,036 ± 303 | 118 ± 43 | 32 ± 23 | 10 ± 16 | 1,464 ± 320 | 21 ± 22 | 488 ± 38 | FITC-IM3 fluorescence, no competitor (PBS) ([3]; Calcium, set at 100): 100.0 ± 1.9; FITC-IM3 fluorescence, no competitor (PBS) ([3]; Copper, calcium = 100): 53.0 ± 0.6; FITC-IM3 fluorescence, no competitor (PBS) ([3]; Ferrous iron, calcium = 100): 85.6 ± 5.8; FITC-IM3 fluorescence, no competitor (PBS) ([3]; Zinc, calcium = 100): 85.9 ± 5.5; fluorescence (full-length huNur77; no Nur77 adsorbed): 59 ± 17 |
| CC(C)C[C@H](NC(=O)[C@H](C)NC(=O)[C@@H]1CCCN1C(=O)[C@H](Cc1c[nH]cn1)NC(=O)[C@H](CS)NC(=O)[C@H](CCC(N)=O)NC(=O)[C@H](CCCCN)NC(=O)[C@@H]1CCCN1C(=O)[C@H](Cc1c[nH]cn1)NC(=O)[C@H](Cc1ccccc1)NC(=O)[C@H](CC(N)=O)NC(=O)CNC(=O)[C@H](CC(N)=O)NC(=O)[C@@H](N)CCCNC(=N)N)C(=O)N[C@@H](CC(=O)O)C(=O)NCC(=O)N[C@@H](CCC(N)=O)C(=O)N[C@@H](CCCNC(=N)N)C(=O)NCC(=O)N[C@@H](CCCCN)C(=O)N[C@@H](CS)C(=O)N[C@@H](Cc1c[nH]c2ccccc12)C(=O)O [IM4] (H-RNGNFHPKQCHPALDGQRGKCW-OH; N-terminus and C-terminus assumed) | – | – | – | – | – | – | – | – | – | – | – | – | – | – | – | – | – | – | – | 70 ± 48 | fluorescence (full-length huNur77; no Nur77 adsorbed): 112 ± 24 |
